{"source": "patent US7223400B2", "about": "“Method to prepare compositions comprising yeast treated with electromagnetic energy” (Ultra Biotech Limited, priority 2003, dated 2007)", "key": {"[1]": {"test_system": "stomach cancer cells (cell line from a DMH-induced Wistar rat stomach cancer)", "assay": "Wistar rat model of transplanted stomach cancer, survival time", "assay_type": "in vivo, Wistar rats", "conditions": "for Number of live animals remaining in the groups after 21 days of treatment: 30 rats per group", "procedure": "In group 2ADM, the rats were injected intravenously with 1.5×10^5 units of doxorubicin (adriamycin, ADM) per kg body weight per day."}, "[2]": {"test_system": "stomach cancer cell line S784", "assay": "TA2 mouse model of stomach cancer, growth of tumors", "assay_type": "in vivo, TA2 mice", "conditions": "31st day from tumor inoculation; 30 consecutive days; AY/NY 0.3 ml oral once per day, ADM 10^5 units per kg i.v. per day", "text": "The growth of tumors in the mice was studied.\nNumerous animal studies have reported the use of murine models in the study of treating stomach cancer. Methylcholanthrene (MC) is a well-known effective trigger of stomach cancer in mice. Accordingly, this experiment used MC in designing TA2 mouse model of human stomach cancer. Detailed description of the use of methylcholanthrene to induce stomach cancer can be found in Wang X. H. et al., 1984, Chin Med J (Engl) 97(3):215–22, which is incorporated herein by reference in its entirety.\nThe animals used for the experiments were TA2 mice, 6 to 8 weeks old (obtainable from the Second Military Medical University, Shanghai, China). Both male and females with an average weight of about 18 to 20 gram were used. The stomach cancer cell line S784 (obtainable from MC-treated TA2 mouse provided by the Tianjian Medical University, China) in a suspension containing about 1.2×10^7 viable tumor cells (about 0.2 ml cell culture) was injected subcutaneously into the animals.\nIn group ADM, the mice were injected intravenously with 10^5 units of doxorubicin (adriamycin, ADM) per kg body weight per day."}, "[3]": {"test_system": "stomach cancer cell line S784", "assay": "Mouse model of stomach cancer, survival time", "assay_type": "in vivo, TA2 mice", "conditions": "for Number of live animals remaining in the groups after 30 days of treatment: 30 mice per group", "procedure": "In group 2ADM, the mice were injected intravenously with 1.5×10^5 units of doxorubicin (adriamycin, ADM) per kg body weight per day."}, "[4]": {"test_system": "stomach cancer cells (cell line from a DMH-induced Wistar rat stomach cancer)", "assay": "Wistar rat model of transplanted stomach cancer, growth of the tumor", "assay_type": "in vivo, Wistar rats", "conditions": "22nd day from tumor inoculation; 21 consecutive days; AY/NY 0.8 ml oral once per day, ADM 10^5 units per kg i.v. per day", "text": "The growth of the tumor in the rats was studied.\nNumerous animal studies have reported the use of Wistar rats in the study of treating stomach cancer. 1,2-dimethylhydrazine (DMH) is a well-known effective trigger of stomach cancer in rats. Accordingly, this experiment used DMH in designing Wistar rat model of human stomach cancer. Detailed description of the use of 1,2-dimethylhydrazine to induce stomach cancer can be found in Watanabe H. et al., 1999, Jpn J Cancer Res. 90(11):1207–11, which is incorporated herein by reference in its entirety.\nThe animals used in the experiments were Wistar rats (obtainable from the Chinese Academy of Military Medical Sciences, Beijing, China). The stomach cancer cell line (obtainable from the First Military Medical University of China, Guangzhou, China) was generated in 1991 from a Wistar rat stomach cancer which was induced by subcutaneous injection of DMH. The rats were injected subcutaneously with 2.5×10^6 stomach cancer cells per animal.\nIn group AY, the rats received 0.8 ml of the biological composition once per day. In group NY, the rats received 0.8 ml of the untreated yeast cells once per day. In group ADM, the rats were injected intravenously with 10^5 units of doxorubicin (adriamycin, ADM) per kg body weight per day. In group CK1, the rats received 0.8 ml of physiological saline once per day. […]"}, "[5]": {"conditions": "1 month after cessation of treatment"}, "[6]": {"conditions": "2 months after cessation of treatment"}, "[7]": {"conditions": "3 months after cessation of treatment"}, "[8]": {"conditions": "4 months after cessation of treatment"}, "[9]": {"conditions": "5 months after cessation of treatment"}, "[10]": {"conditions": "6 months after cessation of treatment"}, "[11]": {"conditions": "rats that survived, observed over 6 months, 1.2 ml oral or ADM 1.5×10^5 units per kg i.v. per day, 21 days"}, "[12]": {"conditions": "mice that survived, observed over 6 months, 0.5 ml oral or ADM 1.5×10^5 units per kg i.v. per day"}}}
{"compound": "COc1cccc2c1C(=O)c1c(O)c3c(c(O)c1C2=O)C[C@@](O)(C(=O)CO)C[C@@H]3O[C@H]1C[C@H](N)[C@H](O)[C@H](C)O1", "note": "[ADM, doxorubicin]", "values": [{"measurement": "Number of live animals remaining in the groups after 21 days of treatment", "setting": "[1]; 0 month after cessation of treatment, 1.2 ml oral or ADM 1.5×10^5 units per kg i.v. per day", "value": 30}, {"measurement": "Number of live animals remaining in the groups after 21 days of treatment", "setting": "[1]; [5]", "value": 30}, {"measurement": "survival of rats bearing stomach cancer cells", "setting": "[1]; 1.2 ml oral per day or ADM 1.5×10^5 units per kg per day, from injection of tumor cells", "value": "all died after four months"}, {"measurement": "Number of live animals remaining in the groups after 21 days of treatment", "setting": "[1]; [6]", "value": 30}, {"measurement": "Number of live animals remaining in the groups after 21 days of treatment", "setting": "[1]; [7]", "value": 22}, {"measurement": "Number of live animals remaining in the groups after 21 days of treatment", "setting": "[1]; [8]", "value": 17}, {"measurement": "Number of live animals remaining in the groups after 21 days of treatment", "setting": "[1]; [9]", "value": 13}, {"measurement": "Number of live animals remaining in the groups after 21 days of treatment", "setting": "[1]; [10]", "value": 0}, {"measurement": "mean weight of rats and standard deviation", "setting": "[1]; [11]", "value": "all animals dead"}, {"measurement": "mean weight of tumor nodules and standard deviation", "setting": "[1]; [11]", "value": "all animals dead"}, {"measurement": "mean weight of mice and standard deviation", "setting": "[2]", "value": "19.8 ± 0.8", "unit": "g"}, {"measurement": "mean weight of stomach and standard deviation", "setting": "[2]", "value": "621 ± 17", "unit": "mg"}, {"measurement": "mean weight of tumor nodules and standard deviation", "setting": "[2]", "value": "346 ± 36", "unit": "mg"}, {"measurement": "Number of live animals remaining in the groups after 30 days of treatment", "setting": "[3]; 0 month after cessation of treatment, 0.5 ml oral or ADM 1.5×10^5 units per kg i.v. per day", "value": 30}, {"measurement": "survival of mice bearing stomach cancer cells", "setting": "[3]; 0.5 ml oral per day or ADM 1.5×10^5 units per kg per day, from injection of tumor cells", "value": "all died after four months"}, {"measurement": "Number of live animals remaining in the groups after 30 days of treatment", "setting": "[3]; [5]", "value": 30}, {"measurement": "Number of live animals remaining in the groups after 30 days of treatment", "setting": "[3]; [6]", "value": 27}, {"measurement": "Number of live animals remaining in the groups after 30 days of treatment", "setting": "[3]; [7]", "value": 16}, {"measurement": "Number of live animals remaining in the groups after 30 days of treatment", "setting": "[3]; [8]", "value": 7}, {"measurement": "Number of live animals remaining in the groups after 30 days of treatment", "setting": "[3]; [9]", "value": 0}, {"measurement": "Number of live animals remaining in the groups after 30 days of treatment", "setting": "[3]; [10]", "value": 0}, {"measurement": "mean weight of mice and standard deviation", "setting": "[3]; [12]", "value": "all animals dead"}, {"measurement": "mean weight of stomach and standard deviation", "setting": "[3]; [12]", "value": "all animals dead"}, {"measurement": "mean weight of tumor nodules and standard deviation", "setting": "[3]; [12]", "value": "all animals dead"}, {"measurement": "mean weight of rats and standard deviation", "setting": "[4]", "value": "181.8 ± 12.8", "unit": "g"}, {"measurement": "mean weight of tumor nodules and standard deviation", "setting": "[4]", "value": "446.4 ± 13.6", "unit": "mg"}]}
